Source: patent US20040081663A1, “Pharmaceutical composition for treatment and prevention of cancer and the preparation thereof” (priority 2002, published 2004)

System: LLC1 tumor cells (Lewis lung cancer cell line)
Test: Lewis lung (LLC) peritoneal carcinomatosis model, tumor resistance test
Format: in vivo, C57BL/6J mice
Settings: for number of mice with tumors: 5 mice per group, 26th day, control: all mice; for average size of tumors (width times length): injected daily for 13 days, sacrificed on 26th day, control 12.38
Excerpt: Lewis lung (LLC) peritoneal carcinomatosis model was used for treatment and prevention of cancer in vivo animal tests, referring to Bertram J S, Janik P., Cancer Lett 1980 November;11(1):63-73; Hirazumi A, Furusawa E. Phytother Res. 1999 August;13(5):380-7; Itoh H, Noda H, Amano H, Ito H. Anticancer Res. 1995 September-October;15(5B):1937-47; Wallace P K, Morahan P S., J Leukoc Biol. 1994 July;56(1) :41-51.; Redmond HP, Schuchter L, Bartlett D, Kelly C J, Shou J, Leon P, Daly J M. , J Surg Res. 1992 April;52(4):406-11; Kagawa K, Yamashita T, Tsubura E, Yamamura Y., Cancer Res. 1984 February;44(2):665-70; and Yamamoto T, Yamashita T, Tsubura E., Invasion Metastasis. 1981; 1(1) :71-84.
Twenty male C57BL/6J mice of two month old were separated into four groups for 5 mice/each. Each mouse was inoculated with 1×10^5 LLC1 tumor cells (Lewis lung cancer cell line) by abdominal injection around the thigh on the first day, i.e. day 0. Each group of mice was treated differently for 13 days as described below and treatment was stopped for 12 days. The mice were sacrificed on the 26th day. The abdomen of each mouse was dissected to examine the tumor size. The size of tumor was defined as width times length.
5 mice were used as the control group. The mice in the control group were injected daily with 100 microliters of saline with propylene glycol (3.05 μl propylene glycol in 100 ml normal saline) for 13 days. The treatment was stopped for 12 days and the mice were sacrificed on the 26th day after inoculation with LLC1 tumor cells. All mice had tumors with an average size of 12.38.
Authentic lovastatin sample was prepared and dissolved in saline with […] as indicated above. The dose amount for administration was adjusted according to mice body weight. The dose amount indicated was the proportional equivalent of lovastatin for human subjects of 60 Kg body weight.
Five C57BL/6J mice were inoculated with 1×10^5 LLC1 cells on day 0 as described above. Lovastatin equivalent of 80 mg/person was injected daily on the other side of the abdomen every day for 13 days. The treatment was stopped for 12 days and the mice were sacrificed on the 26th day after inoculation of LLC1 tumor cells. All mice had tumors with an average size of 9.96.
The same procedures of L80 were followed except that the dose amount for administration was changed to 200 mg/day/person equivalent. Three mice had tumors with an average size of 6.8.
The liquid fermentation product obtained from sample 2 was centrifuged 10,000 rpm for 20 minutes. The supernatant was collected and further filtrated with a 0.2 micron filter in sterile condition. The concentration of lovastatin in the derived filtrate was detected as 0.45 mg/ml. The dose amount for administration was adjusted according to mice body weight. The equivalent amount of lovastatin for human subjects was used for mice tumor resistance tests as indicated.
The same procedures of example L80 were followed except that the sample was Monascus composition. The dose amount for administration was equivalent to 80 mg lovastatin/day/person. The filtrate was administrated in the ratio of 60 μl filtrate to 40 μl saline.
The same procedures of example M80 were followed except that the administration sample was Monascus composition. The dose amount for administration was equivalent to 200 mg lovastatin/day/person. The filtrate was administrated in the ratio of 60 μl filtrate to 40 μl saline.

[1] = dose equivalent to 80 mg lovastatin/day/person
[2] = dose equivalent to 200 mg lovastatin/day/person

CC[C@H](C)C(=O)O[C@H]1C[C@@H](C)C=C2C=C[C@H](C)[C@H](CC[C@@H]3C[C@@H](O)CC(=O)O3)[C@H]21 [Lovastatin, lovastatin]
number of mice with tumors [1]: All
average size of tumors (width times length) [1]: 9.96
number of mice with tumors [2]: Three
average size of tumors (width times length) [2]: 6.8
tumor size (FIG. 6), in words (higher dose of lovastatin (L200) and Monascus compositions M80 and M200): smaller tumor sizes
